Entries after “also recorded” stand apart in the source; their conditions may differ.
Legend:
[1] = tested on: anti-coagulant activity; conditions: cited from earlier work
[2] = tested on: CD2F1 mice irradiated with 9.25 Gy; test: Survival of CD2F1 mice after 9.25 Gy total body irradiation; type: in vivo; conditions: 9.25 Gy TBI
Method: FIG. 1 provides a graph illustrating the survival of CD2F1 mice after total body irradiation: control group with no post-irradiation treatment (o); 0.1 mL PBS administered subcutaneously at 4 h post-irradiation (□); 0.1 mL PBS administered subcutaneously at 24, 36, and 48 h post-irradiation (Δ); 0.1 mL 25 mg/kg ODSH administered subcutaneously at 4, 16, and 28 h post-irradiation (▪); and 0.1 mL 25 mg/kg ODSH administered subcutaneously at 24, 36, and 48 h post-irradiation (▴).
CD2F1 male mice (Batch #7586 DOB Dec. 23, 2012) were weighed and animals outside ±20% of the mean weight were excluded. Mice that were within ±20% of the mean weight were randomized into groups of eight animals per box. There were 24 animals per treatment group. The animals received radiation at a dose rate of 0.6 Gy/min in the AFRRI Cobalt 60 gamma radiation facility. Animals were irradiated in Lucite boxes (8 animals/box) and arranged in an array (dosimetry Feb. 25, 2010) using plastic racks. Animals were restrained for no more than 60 min and returned to cages at the end of the irradiation period.
Post-TBI, animals were untreated (naïve) or treated subcutaneously with either phosphate buffered solution (PBS) or ODSH (2-O, 3-O desulfated heparin). […] The animals were monitored daily (twice a day when necessary) for 30 days and euthanized at the completion of the observational period.

Substance | anti-coagulant activity in the USP anti-coagulant assay [1] | anti-coagulant activity in the USP anti-coagulant assay (example value) ([1]; e.g. value) | survival over the post-irradiation period compared with naïve and PBS-treated mice ([2]; 25 mg/kg s.c. post-irradiation (24, 36 and 48 h), 30-day observation, 25 mg/kg) | mice still alive at day 10 post-irradiation ([2]; 0.1 mL 25 mg/kg s.c. at 24, 36 and 48 h post-irradiation, day 10)
Unfractionated heparin [reference compound] | 165-190 U/mg | – | – | –
2-O, 3-O desulfated heparin [ODSH] | less than 9 U/mg | 7±0.3 U | greatest percentage survival; also recorded: improves survival | 95%

From patent publication US20160287626A1, “METHODS OF TREATING AND PREVENTING RADIATION DAMAGE” (CANTEX PHARMACEUTICALS, INC., priority 2013, published 2016)
